In this assay the test system is VEGF UTRs. The assay is described as follows: Luciferase reporter inhibition in B9 (VEGF UTRs) versus B12 (no VEGF UTRs) cell lines. Format: cell-based, human. The following applies: B9 with VEGF 5'- and 3'-UTRs, B12 without. On the procedure: A monocistronic reporter construct (pLuc/vegf5′+3′UTR) is under the transcriptional control of the CMV promoter and contains a VEGF IRES driving the luciferase reporter, which nucleic acid sequences are both upstream of a VEGF 3′-UTR. Stable cell lines are generated by transfecting 293 cells with the pLuc/vegf5′+3′UTR. A stable cell line is cultured under hygromycin B selection to create clonal cell lines consistent with protocols well known in the art. After two weeks of selection, clonal cell lines are screened for luciferase activity. The luciferase activity of several clonal cell lines (hereafter “clones”) are compared and normalized against total protein content. Clones are maintained under hygromycin B selection for more than three months with intermittent monitoring of luciferase activity. Clones are stable and maintain a high level of luciferase expression. Many clones, for example, about twenty, may be compared to each other with respect to luciferase activity. […] Particular parameters for clones are studied prior to selection for use in post-transcriptional, high-throughput screening (PTHTS). Relevant parameters for PTHTS include, but are not limited to, cell number, incubation time, DMSO concentration, and volume of substrate. The B9 cell line harbors the firefly luciferase reporter driven by the CMV promoter and flanked by the 5′- and 3′-UTRs of VEGF transcripts. […]
A general note: A reporter such as luciferase makes a cellular process visible.

Turning to `COc1ccc(C[C@H](N)C(=O)N[C@H]2[C@@H](O)[C@H](n3cnc4c(N(C)C)ncnc43)O[C@@H]2CO)cc1` [puromycin], the “UTR specificity: luciferase inhibition in B9 versus B12 cell lines” value is listed as “does not change the difference of inhibition in luciferase expression in these two cell lines”.

The values above are taken from patent US8426194B2, “Methods and agents for screening for compounds capable of modulating VEGF expression” (PTC Therapeutics, Inc., priority 2003, dated 2013).
